This is an account of results in patent US20240424019A1, “SHP1 MODIFIED DENDRITIC CELLS AND EXTRACELLULAR VESICLES DERIVED THEREFROM AND ASSOCIATED METHODS” (BOARD OF REGENTS, THE UNIVERSITY OF TEXAS SYSTEM, priority 2021, published 2024).

Assay [1] relates to B16-F10 melanoma. Particulars: VitE and ICT combo-treatment.
Method: For the melanoma tumor challenges, 2×10^5 B16-F10, B16-GMCSF, or B16-FLT3L cells were subcutaneously (s.c.) injected into the right flank of C57BL/6J mice on day 0.
(§1) Treatments were given as single agents or in combinations with the indicated regimens for each group. VitE (D-α-Tocopherol type VI, Cat.T1539, Sigma-Aldrich) was formulated in the vehicle (10% ethanol in sterile water) and administered by oral gavage once a day at a dose of 50 mg/kg body weight (100 μl at 10 mg/ml per day), corresponding to 400 to 600 mg/day in a human weighing 60 kg, which is within the range of doses recommended for supplement and pharmacological use. VitE treatment was initiated on day 4 ending until the ending point.
For tumor volume analysis, each tumor was measured every 3-4 days with a digital caliper beginning on day 7 after the challenge. Tumor volume was calculated using the formula V=(L×W^2)/2 and expressed as mm^3, where V is tumor volume, L is the length of the tumor (longer diameter) and W is the width of the tumor (shorter diameter). Mice were monitored for tumor growth and survival. Measurements were assessed manually by assessing the longest dimension (length, L) and the longest perpendicular dimension (width, W). Tumor volume was calculated using the formula: (L×W^2)/2.
Assay [2] addresses SHP1 immunoprecipitated from LPS-activated DC2.4 cells (UniProt P29351). Put plainly: SHP1 phosphatase assay (EnzChek tyrosine phosphatase kit), dose-response. The format is biochemical, mouse. Particulars: SHP1 from LPS (100 ng/ml)-activated DC2.4 cells; read-out: inhibitory tyrosine phosphatase activity IC50. From the text:
FIG. 3A: […] FIG. 3B: t-SNEs by CyTOF and quantification comparing the intensity of […]-SHP1 in TADCs from the vehicle-or VitE-treated EMT6 tumors at day 15 post-implantation. FIG. 3C: Top, SHP1 knockdown in BMDCs was effective. Bottom, CFSE-dilution analysis of OT-1 T cells co-cultured with OVA protein-pulsed BMDCs (ratio 10:1) with knockdown of SHP1 by […]6 versus siCtrl (n=3). Right, quantification of OT-1 T-cell numbers under the indicated condition. FIG. 3D: The binding of VitE to purified SHP1 is analyzed by microscale thermophoresis (MST) binding assay. […] FIG. 3E: Relative tyrosine phosphatase activity of SHP1 immunoprecipitated from LPS (100 ng/ml)-activated DC2.4 cells in the presence of indicated doses of VitE (mean of triplicates). FIG. 3F: SHP1 tyrosine phosphatase activity in LPS (100 ng/ml)-activated BMDCs (n=6) treated with vehicle-or VitE (50 μg/ml). Error bars, s.e.m. ns, no significant. *P<0.05, **P<0.01. ***P<0.001, ****P<0.0001. We assessed the phosphatase activity of SHP1 by using the RediPlate 96 EnzChek Tyrosine Phosphatase Assay Kit (ThermoFisher). […] We placed beads into RediPlate wells and incubated them for 30 min at 25° C. before reading them for fluorescence. […] The inhibitor dose-response curves were analyzed using normalized IC50 regression curve fitting with control-based normalization.

For assay [3], the system named is 4T1 tumors. The assay can be described thus: Orthotopic 4T1 TNBC tumor model. The format is in vivo, mouse. How it is done: FIG. 6A: Diagram of the experimental paradigm (top) and tumor growth curves (bottom) of orthotopic B16-GMCSF tumor in mice vaccinated with or without GVAX (s.c. at day 1, 4, 7), then treated with vehicle or VitE (50 mg/kg/day daily by oral gavage administration from day 4 to day 20) (n=6/group). FIG. 6B: Tumor weight of 4T1 tumors from mice treated with vehicle. GVAX, ICT (200 μg/mouse anti-PDI and 100 μg/mouse anti-CTLA4 by i.p. at day 7, 10, 13), or GVAX+ICT in combination with vehicle or VitE (50 mg/kg/day daily by oral gavage administration from day 4 to day 25) (n=4) at day 25 after tumor inoculation. FIG. 6C: Flow cytometric analysis (left) and quantification (right) of gp70 tetramer+CD8^+ T cells in 4T1 tumors at day 14 post-implantation with indicated treatments (n=5/group). FIG. 6D: Kaplan-Meier survival curve of 4T1 tumor-bearing mice treated with vehicle, low dosage of Doxorubicin (Dox, 5 mg/kg by i.v.). ICT (200 μg/mouse anti-PD1 and 100 μg/mouse anti-CTLA4 by i.p. at day 7, 10, 13). or Dox+ICT along with vehicle or VitE (n=10). FIG. 6E: Measurement of maximal tumor diameter in HY1936 KPC tumor-bearing mice treated with gemcitabine (GEM, 25 mg/kg by i.p.) and ICT (anti-PDI/anti-CTLA4) along with vehicle or VitE (n=5). FIG. 6F: Kaplan-Meier survival curve of HY19636 KPC tumor-bearing mice treated with vehicle, GEM (gemcitabine, 25 mg/kg by i.p.), GEM+ICT (anti-PDI/anti-CTLA4) plus vehicle or VitE (n=6). Error bars, s.e.m. ns, no significant. *P<0.05. ***P<0.001, ****P<0.0001.
Syngeneic orthotopic PDAC tumors were established by surgical implantation.
Control groups received vehicle (PBS) without the active product.
Where indicated, mice were vaccinated subcutaneously on their contralateral flank with either PBS or 1.0×10^6 35 Gy-irradiated GM-CSF-secreting B16 cells or GM-CSF-secreting 4T1 cells (GVAX) on days 1, 4, and 7 post-tumor injections.
For chemo combination treatment, HY19636 KPC tumor-bearing mice were treated with gemcitabine (GEM) at 25 mg/kg body weight by i.p. injection once a week from day 7 and 4T1 TNBC tumor-bearing mice were given with doxorubicin (Dox, 5 mg/kg body weight) by i.v. once a week from day 10. The chemotherapeutic doses and schedules used in this study are below or within the range of the concentrations used in the clinic after converting drug doses between species.

Assay [4] relates to B16-FLT3L melanoma. Put plainly: B16-FLT3L melanoma model. The format is in vivo, mouse. Particulars: VitE plus ICT.
In assay [5] the test system is RAB34. The assay can be described thus: Immunoblot of Rab34 proteins in BMDCs. The format is cell-based, mouse. The note with it: VitE vs vehicle, 48 hr.
For assay [6], the system named is HY19636 KPC tumor. Put plainly: Orthotopic HY19636 KPC PDAC tumor model. The format is in vivo, mouse.
Method: Syngeneic orthotopic PDAC tumors were established by surgical implantation. Briefly, 2,000 HY19636 KPC cells in 50 μl PBS were injected into each pancreas of the C57BL/6J mouse.
as §1
In assay [7] the test system is EMT6 mammary tumors. The assay can be described thus: Orthotopic EMT6 mammary tumor model. The format is in vivo, mouse.
Where [8] appears, read: doxorubicin+ICT+VitE vs doxorubicin+ICT.
Where [9] appears, read: VitE added to GEM+ICT vs GEM+ICT+vehicle.

The term IC50 denotes the concentration that gives 50% inhibition. As for `Cc1c(C)c2c(c(C)c1O)CC[C@@](C)(CCC[C@H](C)CCC[C@H](C)CCCC(C)C)O2` [VitE, D-α-Tocopherol], in assay [1], the therapeutic effect entry is recorded as “no therapeutic effect”. The IC50 in assay [2] was 50 to 200 µM. The “antitumor effect (tumor weight)” value in assay [3] (VitE 50 mg/kg/day combined with GVAX+ICT) was “significantly enhanced the antitumor effect”. The “gp70 tetramer-specific CD8+ T cells in tumor” value in assay [3] (VitE added to doxorubicin+ICT) was “increased the infiltration of tumor-infiltrating gp70) tetramer-specific CD8^+ T cells”. Moreover, in assay [3] (setting [8]), the survival entry is “substantially prolonged the survival”; the “tumor growth and lung metastasis” value was “inhibited tumor growth and lung metastasis”. Also, in assay [4], the ICT response entry is given as “effectively enhanced their ICT responses”. For the same molecule, the “RAB34 expression in BMDCs” value in assay [5] was “increased total RAB34 expression”. In assay [6] (setting [9]), the survival time entry is reported as “prolonged the survival time” and the tumor growth entry is on record as “effectively inhibited the HY19636KPC PDAC tumor growth”. For the same molecule, the ascites result in assay [6] (VitE added to GEM+ICT, day 25) is recorded as “reduced tumor-induced ascites”. Further, in assay [7] (BALB/c mice, n=10 per group, vehicle-treated 350 mm^3), the “average tumor volume at day 15” value is 173 mm^3. For the same molecule, the “pY564-SHP1 level in TADCs” value in assay [7] (CyTOF, day 15 post-implantation, VitE vs vehicle) is listed as “reduced the pY564-SHP1 level in TADCs”. Besides, in assay [7] (VitE 50 mg/kg and ICT (anti-PD1) combo-treatment), the therapeutic response entry is listed as “significantly improved therapeutic response”. Besides, the tumor growth result in assay [7] (VitE alone vs vehicle-treated group) is listed as “reduced tumor growth”. For the same molecule, in assay [7] (VitE treatment vs vehicle), the “tumor infiltration of immune cells (CyTOF of CD45+ cells)” value was “increased the tumor infiltrations of CD11c+DCs and CD8+ T cells”.
